Data published in the supplement of paper PMC10307832.

Compound: CCOc1cc2ncc(C#N)c(Nc3ccc(OCc4ccccn4)c(Cl)c3)c2cc1NC(=O)/C=C/CN(C)C [Neratinib] + Cc1cc(Nc2cc(N3CCN(C)CC3)nc(Sc3ccc(NC(=O)C4CC4)cc3)n2)n[nH]1 [Tozasertib] (partner 0.1 µM)
Assay: relative viability (nuclei count vs DMSO), 5 days (fraction); higher = more cells survive
In short: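 Relative viability divides the nuclei count in treated wells by that in vehicle wells. Lung cancer cell lines were seeded in 1536-well plates, dosed by pin tool the next day, and fixed and stained after 5 days in one step with final 0.05% Triton X-100, 1% formaldehyde and 1 ug/ml Hoechst. Dosing was a single drug or a fixed anchor-drug dose plus five library-drug doses (not always all listed) in √10 steps, and values are medians of duplicate plates imaged at 4×.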

| Cell Line | relative viability (first compound 0.01 µM) | relative viability (first compound 0.03162 µM) | relative viability (first compound 0.1 µM) | relative viability (first compound 0.3162 µM) | relative viability (first compound 1 µM) |
| --- | --- | --- | --- | --- | --- |
| 201T | 1.14 | 0.945 | 0.848 | 0.858 | 0.766 |
| A-427 | 0.234 | 0.246 | 0.177 | 0.214 | 0.145 |
| ABC-1 | 0.206 | 0.139 | 0.177 | 0.146 | 0.185 |
| BEN | 0.559 | 0.576 | 0.416 | 0.517 | 0.447 |
| CAL-12T | 0.487 | 0.288 | 0.249 | 0.178 | 0.122 |
| COR-L23 | 0.216 | 0.217 | 0.193 | 0.186 | 0.176 |
| COR-L 105 | 0.41 | 0.418 | 0.375 | 0.251 | 0.186 |
| ChaGo-K-1 | 0.233 | 0.224 | 0.221 | 0.215 | 0.229 |
| EKVX | 0.416 | 0.42 | 0.345 | 0.197 | 0.13 |
| EMC-BAC-2 | 0.326 | 0.352 | 0.317 | 0.314 | 0.188 |
| EPLC-272H | – | 0.204 | 0.267 | 0.269 | 0.203 |
| H3255 | 0.759 | 0.721 | 0.423 | 0.233 | 0.236 |
| HARA | 0.106 | 0.104 | 0.0889 | 0.11 | 0.0872 |
| HCC-15 | 0.673 | 0.453 | 0.39 | 0.341 | 0.174 |
| HCC-44 | 1.31 | 1.15 | – | 0.778 | 0.458 |
| HCC-78 | 0.584 | 0.373 | 0.401 | 0.379 | 0.238 |
| HCC-366 | 0.102 | 0.114 | 0.144 | 0.0752 | 0.0557 |
| HCC-827 | 0.414 | 0.428 | 0.396 | 0.268 | 0.136 |
| HOP-62 | 0.444 | 0.354 | 0.33 | 0.369 | 0.32 |
| LC-2-ad | 0.448 | 0.424 | 0.455 | 0.388 | 0.277 |
| LCLC-97TM1 | 0.239 | 0.189 | 0.298 | 0.238 | 0.121 |
| LCLC-103H | 0.44 | 0.503 | 0.502 | 0.511 | 0.365 |
| LK-2 | 0.159 | 0.179 | 0.205 | 0.189 | 0.172 |
| LOU-NH91 | 0.635 | 0.665 | 0.527 | 0.503 | 0.411 |

| Cell Line | relative viability (first compound 0.01 µM) | relative viability (first compound 0.03162 µM) | relative viability (first compound 0.1 µM) | relative viability (first compound 0.3162 µM) | relative viability (first compound 1 µM) |
| --- | --- | --- | --- | --- | --- |
| LU99A | 0.286 | 0.279 | 0.274 | 0.25 | 0.19 |
| LXF-289 | 0.22 | 0.233 | 0.183 | 0.174 | 0.186 |
| NCI-H23 | 0.371 | 0.342 | 0.33 | 0.298 | 0.215 |
| NCI-H322M | 0.502 | 0.47 | 0.451 | 0.33 | 0.284 |
| NCI-H358 | 0.0993 | 0.0867 | 0.0981 | 0.0713 | 0.0842 |
| NCI-H441 | 0.611 | 0.775 | 0.666 | 0.384 | 0.334 |
| NCI-H460 | 0.587 | 0.546 | 0.378 | 0.268 | 0.0381 |
| NCI-H520 | 0.455 | 0.418 | 0.401 | 0.433 | 0.33 |
| NCI-H596 | 0.862 | 0.961 | 0.736 | 0.857 | 0.601 |
| NCI-H647 | 0.281 | 0.333 | 0.155 | 0.195 | 0.174 |
| NCI-H650 | 0.749 | 0.829 | 0.654 | 0.668 | 0.583 |
| NCI-H661 | 0.374 | 0.322 | 0.323 | 0.37 | 0.308 |
| NCI-H727 | 0.675 | 0.535 | 0.5 | 0.53 | 0.34 |
| NCI-H838 | 0.274 | 0.291 | 0.241 | 0.267 | 0.22 |
| NCI-H1355 | 0.541 | 0.548 | 0.482 | 0.436 | 0.282 |
| NCI-H1395 | – | 0.76 | 0.688 | 0.73 | 0.519 |
| NCI-H1437 | 0.43 | 0.439 | 0.296 | 0.38 | 0.328 |
| NCI-H1648 | 0.608 | 0.364 | 0.54 | 0.299 | 0.188 |
| NCI-H1650 | 0.362 | 0.359 | 0.292 | 0.31 | 0.204 |
| NCI-H1651 | 0.743 | 0.792 | 0.543 | 0.58 | 0.312 |
| NCI-H1666 | 0.615 | 0.563 | 0.538 | – | 0.541 |
| NCI-H1734 | 0.231 | 0.281 | 0.168 | 0.266 | 0.212 |
| NCI-H1755 | 0.619 | 0.617 | 0.613 | 0.515 | 0.543 |
| NCI-H1793 | 0.317 | 0.354 | 0.293 | 0.176 | 0.143 |

| Cell Line | relative viability (first compound 0.01 µM) | relative viability (first compound 0.03162 µM) | relative viability (first compound 0.1 µM) | relative viability (first compound 0.3162 µM) | relative viability (first compound 1 µM) |
| --- | --- | --- | --- | --- | --- |
| NCI-H1915 | 0.42 | 0.475 | 0.402 | 0.39 | 0.346 |
| NCI-H1944 | 0.255 | 0.248 | 0.221 | 0.218 | 0.16 |
| NCI-H1975 | 0.869 | – | 0.698 | 0.324 | 0.106 |
| NCI-H1993 | 0.528 | 0.594 | 0.597 | 0.536 | 0.593 |
| NCI-H2009 | 0.732 | 0.799 | 0.621 | 0.613 | 0.554 |
| NCI-H2023 | 0.389 | 0.33 | 0.292 | 0.211 | 0.141 |
| NCI-H2085 | 0.729 | 0.909 | 0.716 | 0.675 | 0.458 |
| NCI-H2087 | 0.239 | 0.274 | 0.197 | 0.193 | 0.134 |
| NCI-H2126 | 0.851 | 0.857 | 0.794 | 0.673 | 0.397 |
| NCI-H2170 | 0.842 | 0.684 | 0.565 | 0.266 | 0.183 |
| NCI-H2228 | 0.264 | 0.281 | 0.178 | 0.267 | 0.126 |
| NCI-H2342 | 0.414 | 0.52 | 0.441 | 0.455 | 0.358 |
| NCI-H2347 | 0.539 | 0.624 | – | 0.541 | 0.384 |
| NCI-H2405 | 0.808 | 0.852 | 0.712 | 0.72 | 0.547 |
| NCI-H3122 | 0.437 | 0.422 | 0.388 | 0.375 | 0.135 |
| PC-3 [JPC-3] | 0.891 | 0.922 | 0.822 | 0.773 | 0.406 |
| PC-14 | 0.574 | 0.721 | 0.627 | 0.454 | 0.0727 |
| RERF-LC-KJ | 0.553 | 0.593 | 0.586 | 0.5 | 0.293 |
| SK-LU-1 | 0.292 | 0.305 | 0.277 | 0.294 | 0.227 |
| SK-MES-1 | 0.947 | 0.996 | 0.955 | 0.631 | 0.21 |
| SW 900 | 0.561 | 0.444 | 0.673 | 0.517 | 0.387 |
| SW 1573 | 0.203 | 0.152 | 0.194 | 0.177 | 0.122 |
| UMC-11 | 0.198 | 0.2 | 0.216 | 0.179 | 0.185 |
